Measurements taken from article PMC8694024 (RSC Advances, 2021).
Read-outs that look alike come from different tables or passages of the source.

Assays:
[1] = biological target: T1, rat intestinal isomaltase (Rattus norvegicus, UniProt P23739); experiment: Inhibitory effects on rat intestinal α-glucosidases: isomaltase; assay type: biochemical
[2] = biological target: T2, β-glucosidase from Aspergillus niger (Aspergillus niger, UniProt A2RAL4); experiment: Inhibition of β-glucosidase from Aspergillus niger, β-p-NPG substrate; assay type: biochemical; conditions: read-out: Apparent IC50, A. niger β-glucosidase; pH 4.6, β-p-NPG substrate
T2 sequence (A2RAL4 20-860): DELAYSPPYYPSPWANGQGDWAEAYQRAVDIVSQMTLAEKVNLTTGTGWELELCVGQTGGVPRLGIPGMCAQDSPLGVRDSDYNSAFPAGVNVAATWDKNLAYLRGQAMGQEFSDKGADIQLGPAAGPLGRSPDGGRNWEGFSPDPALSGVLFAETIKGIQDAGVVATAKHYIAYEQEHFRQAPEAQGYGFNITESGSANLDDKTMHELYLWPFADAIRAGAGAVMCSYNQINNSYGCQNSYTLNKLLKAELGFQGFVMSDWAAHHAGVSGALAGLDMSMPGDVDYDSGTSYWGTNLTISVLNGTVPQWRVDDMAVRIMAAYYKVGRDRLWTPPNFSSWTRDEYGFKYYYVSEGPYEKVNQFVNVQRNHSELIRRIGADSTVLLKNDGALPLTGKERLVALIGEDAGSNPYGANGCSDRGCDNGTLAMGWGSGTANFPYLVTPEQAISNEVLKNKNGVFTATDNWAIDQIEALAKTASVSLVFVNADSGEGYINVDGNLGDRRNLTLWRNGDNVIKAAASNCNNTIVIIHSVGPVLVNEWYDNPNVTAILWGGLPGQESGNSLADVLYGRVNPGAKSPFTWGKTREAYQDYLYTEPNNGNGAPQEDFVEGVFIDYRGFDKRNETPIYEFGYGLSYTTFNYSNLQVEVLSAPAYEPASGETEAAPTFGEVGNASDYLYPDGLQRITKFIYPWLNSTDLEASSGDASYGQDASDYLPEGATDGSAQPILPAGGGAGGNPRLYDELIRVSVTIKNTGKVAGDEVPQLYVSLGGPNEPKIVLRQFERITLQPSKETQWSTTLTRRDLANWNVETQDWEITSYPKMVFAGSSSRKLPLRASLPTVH

rat intestinal maltase [3] = experiment: Inhibitory effects on rat intestinal α-glucosidases: maltase; assay type: biochemical; conditions: read-out: Apparent IC50, Maltase; rat intestinal disaccharidases
rat intestinal sucrase = rat intestinal sucrase (Rattus norvegicus, UniProt P23739); experiment: Inhibitory effects on rat intestinal α-glucosidases: sucrase; assay type: biochemical
rat intestinal maltase [4] = conditions: read-out: Apparent IC50, Maltase; rat intestinal disaccharidases; cited from earlier work
[5] = biological target: T1, rat intestinal isomaltase; conditions: read-out: Apparent IC50, Isomaltase; rat intestinal disaccharidases; cited from earlier work
[6] = test system: intestinal α-glucosidases; conditions: cited from earlier work
[7] = biological target: recombinant human α-glucosidase GAA (Homo sapiens, UniProt P10253); experiment: Inhibition of recombinant human α-glucosidase GAA; assay type: biochemical
[8] = read-out: Apparent IC50, Isomaltase, rat intestinal disaccharidases
[9] = read-out: Apparent IC50, Sucrase, rat intestinal disaccharidases

Chain of rat intestinal sucrase (P23739 whole entry): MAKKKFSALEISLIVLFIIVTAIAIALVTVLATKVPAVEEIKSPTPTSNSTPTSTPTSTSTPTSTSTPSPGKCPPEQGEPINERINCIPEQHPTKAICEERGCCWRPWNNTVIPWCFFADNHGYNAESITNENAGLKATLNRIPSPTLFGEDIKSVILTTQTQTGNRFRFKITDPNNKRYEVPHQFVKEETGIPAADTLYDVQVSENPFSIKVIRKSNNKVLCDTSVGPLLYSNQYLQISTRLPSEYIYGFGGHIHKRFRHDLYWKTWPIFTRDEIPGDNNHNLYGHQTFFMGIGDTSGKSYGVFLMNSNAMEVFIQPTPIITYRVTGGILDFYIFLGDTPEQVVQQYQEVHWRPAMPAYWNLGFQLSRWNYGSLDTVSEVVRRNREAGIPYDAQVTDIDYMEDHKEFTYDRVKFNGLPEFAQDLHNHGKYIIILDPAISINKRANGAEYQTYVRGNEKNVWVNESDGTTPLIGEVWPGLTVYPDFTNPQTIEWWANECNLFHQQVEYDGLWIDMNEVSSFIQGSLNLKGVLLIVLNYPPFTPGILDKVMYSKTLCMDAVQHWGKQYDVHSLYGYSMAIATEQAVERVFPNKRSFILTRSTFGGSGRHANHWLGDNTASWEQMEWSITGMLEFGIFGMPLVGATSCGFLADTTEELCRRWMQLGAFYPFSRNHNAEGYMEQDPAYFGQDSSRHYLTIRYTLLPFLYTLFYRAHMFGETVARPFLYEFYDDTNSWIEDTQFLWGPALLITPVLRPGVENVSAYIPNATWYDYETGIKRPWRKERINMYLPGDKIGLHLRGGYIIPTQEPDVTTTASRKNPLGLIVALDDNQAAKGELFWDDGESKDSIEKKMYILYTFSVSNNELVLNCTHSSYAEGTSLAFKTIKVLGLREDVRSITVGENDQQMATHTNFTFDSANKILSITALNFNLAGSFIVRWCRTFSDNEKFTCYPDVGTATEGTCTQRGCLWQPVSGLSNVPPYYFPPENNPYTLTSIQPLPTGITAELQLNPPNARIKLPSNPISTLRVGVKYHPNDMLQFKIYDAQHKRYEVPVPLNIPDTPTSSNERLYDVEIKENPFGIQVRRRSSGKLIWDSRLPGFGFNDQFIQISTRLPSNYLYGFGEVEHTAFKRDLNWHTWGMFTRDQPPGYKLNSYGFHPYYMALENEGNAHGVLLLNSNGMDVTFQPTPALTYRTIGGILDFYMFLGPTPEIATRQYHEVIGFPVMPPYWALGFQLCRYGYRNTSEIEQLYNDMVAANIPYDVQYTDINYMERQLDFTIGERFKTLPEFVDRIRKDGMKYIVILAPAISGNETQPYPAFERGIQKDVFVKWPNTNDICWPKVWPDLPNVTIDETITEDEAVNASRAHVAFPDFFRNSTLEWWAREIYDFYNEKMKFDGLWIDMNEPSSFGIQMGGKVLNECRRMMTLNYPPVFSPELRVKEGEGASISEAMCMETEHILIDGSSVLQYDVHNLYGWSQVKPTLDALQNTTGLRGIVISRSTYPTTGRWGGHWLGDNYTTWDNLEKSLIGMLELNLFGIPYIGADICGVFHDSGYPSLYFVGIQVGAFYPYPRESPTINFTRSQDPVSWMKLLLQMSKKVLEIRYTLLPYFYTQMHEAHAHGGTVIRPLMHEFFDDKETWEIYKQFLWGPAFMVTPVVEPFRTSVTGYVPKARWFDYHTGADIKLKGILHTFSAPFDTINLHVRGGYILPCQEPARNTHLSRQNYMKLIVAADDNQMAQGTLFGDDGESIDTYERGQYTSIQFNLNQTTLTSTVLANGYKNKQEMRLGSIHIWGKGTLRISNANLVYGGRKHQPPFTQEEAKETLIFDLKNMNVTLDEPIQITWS
T1 sequence (P23739 whole entry): as above

| Compound | IC50 [1, 8] [µM] | IC50 [2] [µM] | IC50 (rat intestinal maltase [3]) [µM] | IC50 (rat intestinal sucrase; [9]) [µM] | also measured |
| --- | --- | --- | --- | --- | --- |
| 3'-epi-Neosalacinol [Compound 9] | 0.58 | > 1000 | 4.3 | 0.69 |  |
| 3'-epi-Salacinol [Compound 8] | 6.4 | > 1000 | > 100 | 19 |  |
| O=S(=O)([O-])O[C@@H](CO)[C@H](O)C[S@+]1C[C@@H](O)[C@H](O)[C@H]1CO [Compound 1, Salacinol] |  |  |  |  | IC50 (rat intestinal maltase [4]): 5.2 µM; IC50 [5]: 5.2 µM; type of inhibition (Lineweaver–Burk plots) [6]: competitive type of inhibition |
| [O-][C@@H](CO)[C@H](O)C[S@+]1C[C@@H](O)[C@H](O)[C@H]1CO [Compound 2, neosalacinol, reference compound] |  |  | 25 |  | IC50 [1]: 0.45 µM; Ki [7]: 3.6 ± 0.3 µM; IC50 (rat intestinal sucrase): 3.6 µM |
| OCC(CO)N[C@H]1C[C@](O)(CO)[C@@H](O)[C@H](O)[C@H]1O [Voglibose] |  |  |  |  | Ki [7]: 7.6 ± 0.8 µM |

Now from value to compound, other results behind:

| IC50 [1, 8] [µM] | IC50 [2] [µM] | IC50 (rat intestinal maltase [3]) [µM] | IC50 (rat intestinal sucrase; [9]) [µM] | Compound | also measured |
| --- | --- | --- | --- | --- | --- |
| 34 | > 1000 | > 100 |  | 2', 3'-epi-Neosalacinol [Compound 13] |  |
| > 100 | > 1000 | > 100 | > 100 | 2', 3'-epi-Salacinol [Compound 12] |  |
| > 100 | > 1000 | > 100 |  | 2'-epi-Neosalacinol [Compound 11] |  |
| > 100 | > 1000 | > 100 | > 100 | 2'-epi-Salacinol [Compound 10] |  |
